The values below come from ChEMBL document CHEMBL1799959, “Cyathane diterpenes from Chinese mushroom Sarcodon scabrosus and their neurite outgrowth-promoting activity” (2011).

Test [1] deals with PC-12. Description: Neuritogenic activity in rat PC12 cells in serum free medium assessed as potentiation of NGF-induced neurite outgrowth at 25 uM after 24 hrs by light microscopy in presence of 20 ng/ml NGF. Format: functional.
Test [2] concerns PC-12. Description: Neuritogenic activity in rat PC12 cells in serum free medium assessed as neurite outgrowth at 25 uM after 24 hrs by light microscopy. The class given is functional, cell-based.
Test [3] deals with PC-12. Description: Neuritogenic activity in rat PC12 cells in serum free medium assessed as potentiation of NGF-induced neurite outgrowth at 25 uM after 24 hrs by light microscopy in presence of 20 ng/ml NGF relative to NGF. The class given is functional, cell-based.

SMILES strings stand for the structures. Calls of active or inactive are those of the source. The calls are words filed in the database; no cut-off is given here.

Turning to `CC(=O)OC[C@@H](C)C1=C2[C@H]3CC=C(C=O)CC(=O)[C@]3(C)CC[C@@]2(C)CC1`, the outcome with PC-12 [1] and with PC-12 [2] was inactive.

For the molecule `C[C@@H](CO)C1=C2[C@H]3C[C@H](O)C(COC(=O)c4ccccc4)=C[C@H](O)[C@]3(C)CC[C@@]2(CO)CC1`, the outcome with PC-12 [1] and in the test with PC-12 [2] was inactive.

For `CC(C)C1=C2[C@H]3C[C@@H](OC(=O)c4ccccc4)C(COC(=O)c4ccccc4)=C[C@H](O)[C@]3(C)CC[C@@]2(C(=O)O)CC1`, the outcome in the test with PC-12 [1] and in the test on PC-12 [2] was inactive.

`C[C@H](CO)C1=C2[C@H]3CC=C(C=O)CC(=O)[C@]3(C)CC[C@@]2(C)CC1` [SARCODONIN G]: in the test on PC-12 [1], the Activity stood at 24.9%. For the same molecule, the result in the test on PC-12 [2] was inactive. In addition, in the test on PC-12 [3], the outcome was Active.

With `C[C@@H](CO)C1=C2[C@H]3C[C@H](O)C(COC(=O)c4ccccc4)=C[C@H](O)[C@]3(C)CC[C@@]2(C)CC1`, the result in the test on PC-12 [1] and with PC-12 [2] was inactive.

For `C[C@H](CO)C1=C2C3=CC=C(C=O)C[C@H](O)[C@]3(C)CC[C@@]2(C)CC1` [SARCODONIN A], the Activity in the test on PC-12 [1] is given as 20%. In the test on PC-12 [2], the result was inactive. Also, the result in the test with PC-12 [3] was Active.

Turning to `C[C@@H](CO)C1=C2[C@H]3CC=C(C=O)CC(=O)[C@]3(C)CC[C@@]2(CO)CC1`, the result in the test on PC-12 [1] and with PC-12 [2] was inactive.
